Measurements as given in patent US9833497B2, “Human originated EGF domain proteins and use of the same” (CHENGDU SOURCEBIO LIMITED-LIABILITY COMPANY, priority 2013, dated 2017).

Tests used:
Format in all cases: cell-based
E. coli DH5α = test: Antibacterial activity: MIC and growth curve against E. coli DH5α in 96-well plate; settings: minimal inhibitory concentration against E. coli DH5α; 96-well plate, 5×10^5 CFU/mL, 37° C., judged after 8 h
Procedure, shortened: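 MIC taken as lowest protein level with no bacterial growth, tracked by A600 every 30 min during 37 °C, 175 rpm culture. Two-fold protein series 50-12.5 μg/mL final, triplicate wells, against 5×10^5 CFU/mL of LB-washed mid-log cells.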

E. coli BL21 = test: MIC against Gram-negative bacteria: E. coli BL21; settings: 5×10^5 CFU/mL
Procedure, shortened: (§1)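 Growth inhibition by human EGF domain proteins was scored in LB liquid culture seeded at 5×10^5 CFU/mL. Protein was applied as a two-fold dilution series in triplicate, with shaking incubation at 37° C; MIC is the lowest concentration giving no growth.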

Pseudomonas aeruginosa = test: MIC against Gram-negative bacteria: Pseudomonas aeruginosa; settings: 5×10^5 CFU/mL
Procedure, shortened: as §1

Klebsiella pneumonia = test: MIC against Gram-negative bacteria: Klebsiella pneumonia; settings: 5×10^5 CFU/mL
Procedure, shortened: as §1

Enterobacter cloacae = test: MIC against Gram-negative bacteria: Enterobacter cloacae; settings: 5×10^5 CFU/mL
Procedure, shortened: as §1

Aeromonas hydrophila = test: MIC against Gram-negative bacteria: Aeromonas hydrophila; settings: 5×10^5 CFU/mL
Procedure, shortened: as §1

Citrobacter diversus = test: MIC against Gram-negative bacteria: Citrobacter diversus; settings: 5×10^5 CFU/mL
Procedure, shortened: as §1

Moraxella catarrhalis = test: MIC against Gram-negative bacteria: Moraxella catarrhalis; settings: 5×10^5 CFU/mL
Procedure, shortened: as §1

Proteus mirabilis = test: MIC against Gram-negative bacteria: Proteus mirabilis; settings: 5×10^5 CFU/mL
Procedure, shortened: as §1

Proteus vulgaris = test: MIC against Gram-negative bacteria: Proteus vulgaris; settings: 5×10^5 CFU/mL
Procedure, shortened: as §1

Serratia marcescens = test: MIC against Gram-negative bacteria: Serratia marcescens; settings: 5×10^5 CFU/mL
Procedure, shortened: as §1

[1] = 10 h cultivation at 37° C., two-fold serial dilution
[2] = E. coli BL21, 10 h cultivation at 37° C.
[3] = Pseudomonas aeruginosa, 10 h cultivation at 37° C.
[4] = Klebsiella pneumonia, 10 h cultivation at 37° C.
[5] = Enterobacter cloacae, 10 h cultivation at 37° C.
[6] = Aeromonas hydrophila, 10 h cultivation at 37° C.
[7] = Citrobacter diversus, 10 h cultivation at 37° C.
[8] = Moraxella catarrhalis, 10 h cultivation at 37° C.
[9] = Proteus mirabilis, 10 h cultivation at 37° C.
[10] = Proteus vulgaris, 10 h cultivation at 37° C.
[11] = Serratia marcescens, 10 h cultivation at 37° C.

“PRT1122 (DVDECLSDPCLHGGTCSDTVAGYICRCPETWGGRDCS; listed as Homo sapiens)” was tested, and the MIC (E. coli DH5α) was 50 µg/mL, the “MIC E. coli BL21” value (E. coli BL21; [1]) was 12.5 µg/mL and the “MIC P. aeruginosa” value (Pseudomonas aeruginosa; [1]) was 50 µg/mL. For the same substance, the “MIC K. pneumonia” value (Klebsiella pneumonia; [1]) was 12.5 µg/mL, the “MIC E. cloacae” value (Enterobacter cloacae; [1]) was 50 µg/mL and the “MIC A. hydrophila” value (Aeromonas hydrophila; [1]) was 25 µg/mL. For the same substance, the “MIC C. diversus” value (Citrobacter diversus; [1]) was 12.5 µg/mL, the “MIC M. catarrhalis” value (Moraxella catarrhalis; [1]) was 50 µg/mL and the “MIC P. mirabilis” value (Proteus mirabilis; [1]) was 12.5 µg/mL. For the same substance, the “MIC P. vulgaris” value (Proteus vulgaris; [1]) was 50 µg/mL and the “MIC S. marcescens” value (Serratia marcescens; [1]) was 12.5 µg/mL.
“PRT628 (CTCNQHGTCDPNTGICVCSHHTEGPSCERCLPGFYGNPFAGQADDCQP; listed as Homo sapiens)” was tested, and the MIC (E. coli DH5α) was 12.5 µg/mL, the “MIC E. coli BL21” value (E. coli BL21; 96-well plate, 37° C., 10 h) was 12.5 µg/mL and the “MIC P. aeruginosa” value (Pseudomonas aeruginosa; 96-well plate, 37° C., 10 h) was 25 µg/mL. For the same substance, the “MIC K. pneumonia” value (Klebsiella pneumonia; 96-well plate, 37° C., 10 h) was 12.5 µg/mL, the “MIC E. cloacae” value (Enterobacter cloacae; 96-well plate, 37° C., 10 h) was 25 µg/mL and the “MIC A. hydrophila” value (Aeromonas hydrophila; 96-well plate, 37° C., 10 h) was 12.5 µg/mL. For the same substance, the “MIC C. diversus” value (Citrobacter diversus; 96-well plate, 37° C., 10 h) was 25 µg/mL, the “MIC M. catarrhalis” value (Moraxella catarrhalis; 96-well plate, 37° C., 10 h) was 12.5 µg/mL and the “MIC P. mirabilis” value (Proteus mirabilis; 96-well plate, 37° C., 10 h) was 25 µg/mL. For the same substance, the “MIC P. vulgaris” value (Proteus vulgaris; 96-well plate, 37° C., 10 h) was 12.5 µg/mL and the “MIC S. marcescens” value (Serratia marcescens; 96-well plate, 37° C., 10 h) was 25 µg/mL.
With “PRT1436 (AERNCRNPELNPCSVNAQCIEERQGDVTCVCGVGWAGDGYICG; listed as Homo sapiens)” the MIC (E. coli DH5α) was 12.5 µg/mL, the “MIC against E. coli BL21” value (E. coli BL21; [2]) was 12.5 µg/mL and the “MIC against P. aeruginosa” value (Pseudomonas aeruginosa; [3]) was 12.5 µg/mL. For the same substance, the “MIC against K. pneumonia” value (Klebsiella pneumonia; [4]) was 50 µg/mL, the “MIC against E. cloacae” value (Enterobacter cloacae; [5]) was 12.5 µg/mL and the “MIC against A. hydrophila” value (Aeromonas hydrophila; [6]) was 50 µg/mL. For the same substance, the “MIC against C. diversus” value (Citrobacter diversus; [7]) was 25 µg/mL, the “MIC against M. catarrhalis” value (Moraxella catarrhalis; [8]) was 25 µg/mL and the “MIC against P. mirabilis” value (Proteus mirabilis; [9]) was 12.5 µg/mL. The “MIC against P. vulgaris” value (Proteus vulgaris; [10]) was 25 µg/mL and the “MIC against S. marcescens” value (Serratia marcescens; [11]) was 12.5 µg/mL.
In the case of “PRT211 (DIDECSYSSYLCQYRCVNEPGRFSCHCPQGYQ; listed as Homo sapiens)”, the MIC (E. coli DH5α) is reported as 25 µg/mL, the “MIC (μg/mL) E. coli BL21” value (E. coli BL21; [2]) is reported as 12.5 µg/mL and the “MIC (μg/mL) P. aeruginosa” value (Pseudomonas aeruginosa; P. aeruginosa, 10 h cultivation at 37° C.) is reported as 25 µg/mL. For the same substance, the “MIC (μg/mL) K. pneumonia” value (Klebsiella pneumonia; K. pneumonia, 10 h cultivation at 37° C.) was 12.5 µg/mL, the “MIC (μg/mL) E. cloacae” value (Enterobacter cloacae; E. cloacae, 10 h cultivation at 37° C.) was 25 µg/mL and the “MIC (μg/mL) A. hydrophila” value (Aeromonas hydrophila; A. hydrophila, 10 h cultivation at 37° C.) was 50 µg/mL. For the same substance, the “MIC (μg/mL) C. diversus” value (Citrobacter diversus; C. diversus, 10 h cultivation at 37° C.) was 25 µg/mL, the “MIC (μg/mL) M. catarrhalis” value (Moraxella catarrhalis; M. catarrhalis, 10 h cultivation at 37° C.) was 12.5 µg/mL and the “MIC (μg/mL) P. mirabilis” value (Proteus mirabilis; P. mirabilis, 10 h cultivation at 37° C.) was 25 µg/mL. The “MIC (μg/mL) P. vulgaris” value (Proteus vulgaris; P. vulgaris, 10 h cultivation at 37° C.) was 50 µg/mL and the “MIC (μg/mL) S. marcescens” value (Serratia marcescens; S. marcescens, 10 h cultivation at 37° C.) was 25 µg/mL.
“PRT1407 (LKTMCPDQCSGHGTYLQESGSCTCDPNWTGPDCS; listed as Homo sapiens)” was tested, and the MIC (E. coli DH5α) was 50 µg/mL, the “MIC against E. coli BL21” value (E. coli BL21; [2]) was 25 µg/mL and the “MIC against P. aeruginosa” value (Pseudomonas aeruginosa; [3]) was 12.5 µg/mL. For the same substance, the “MIC against K. pneumonia” value (Klebsiella pneumonia; [4]) was 12.5 µg/mL, the “MIC against E. cloacae” value (Enterobacter cloacae; [5]) was 12.5 µg/mL and the “MIC against A. hydrophila” value (Aeromonas hydrophila; [6]) was 50 µg/mL. For the same substance, the “MIC against C. diversus” value (Citrobacter diversus; [7]) was 12.5 µg/mL, the “MIC against M. catarrhalis” value (Moraxella catarrhalis; [8]) was 50 µg/mL and the “MIC against P. mirabilis” value (Proteus mirabilis; [9]) was 12.5 µg/mL. For the same substance, the “MIC against P. vulgaris” value (Proteus vulgaris; [10]) was 12.5 µg/mL and the “MIC against S. marcescens” value (Serratia marcescens; [11]) was 25 µg/mL.
With “PRT1357 (GQHSCPSDCNNLGQCVSGRCICNEGYSGEDCS; listed as Homo sapiens)” the MIC (E. coli DH5α) was 50 µg/mL, the “MIC against E. coli BL21” value (E. coli BL21; [2]) was 12.5 µg/mL and the “MIC against P. aeruginosa” value (Pseudomonas aeruginosa; [3]) was 25 µg/mL. The “MIC against K. pneumonia” value (Klebsiella pneumonia; [4]) was 50 µg/mL, the “MIC against E. cloacae” value (Enterobacter cloacae; [5]) was 25 µg/mL and the “MIC against A. hydrophila” value (Aeromonas hydrophila; [6]) was 100 µg/mL. The “MIC against C. diversus” value (Citrobacter diversus; [7]) was 50 µg/mL, the “MIC against M. catarrhalis” value (Moraxella catarrhalis; [8]) was 12.5 µg/mL and the “MIC against P. mirabilis” value (Proteus mirabilis; [9]) was 12.5 µg/mL. The “MIC against P. vulgaris” value (Proteus vulgaris; [10]) was 50 µg/mL and the “MIC against S. marcescens” value (Serratia marcescens; [11]) was 12.5 µg/mL.
In the case of “PRT563 (CVCNYLGTVQEHCNGSDCQCDKATGQCLCLPNVIGQNCDRCAPNTWQLASGTGCDP; listed as Homo sapiens)”, the MIC (E. coli DH5α) is reported as 25 µg/mL, the “MIC against E. coli BL21” value (E. coli BL21; 96-well plate, 37° C., 10 h) is reported as 12.5 µg/mL and the “MIC against P. aeruginosa” value (Pseudomonas aeruginosa; 96-well plate, 37° C., 10 h) is reported as 25 µg/mL. For the same substance, the “MIC against K. pneumonia” value (Klebsiella pneumonia; 96-well plate, 37° C., 10 h) was 50 µg/mL, the “MIC against E. cloacae” value (Enterobacter cloacae; 96-well plate, 37° C., 10 h) was 25 µg/mL and the “MIC against A. hydrophila” value (Aeromonas hydrophila; 96-well plate, 37° C., 10 h) was 12.5 µg/mL. For the same substance, the “MIC against C. diversus” value (Citrobacter diversus; 96-well plate, 37° C., 10 h) was 25 µg/mL, the “MIC against M. catarrhalis” value (Moraxella catarrhalis; 96-well plate, 37° C., 10 h) was 50 µg/mL and the “MIC against P. mirabilis” value (Proteus mirabilis; 96-well plate, 37° C., 10 h) was 25 µg/mL. For the same substance, the “MIC against P. vulgaris” value (Proteus vulgaris; 96-well plate, 37° C., 10 h) was 12.5 µg/mL and the “MIC against S. marcescens” value (Serratia marcescens; 96-well plate, 37° C., 10 h) was 25 µg/mL.
